Source: patent publication US20250296971A1, “GASTRIC INHIBITORY PEPTIDE RECEPTOR LIGANDS” (priority 2021, published 2025)
*1 amine or outer side, *2 acyl side, *3 side chain or, on linkers, in order; H or OH if unused. Where a SMILES comes first, the peptide text is derived from it. Bridges are numbered along the chain shown (N, C = ends). Side-chain parts run from the residue outwards. [ ]: non-standard residue; d: D form. The star is where a group is joined. NH(1-deoxy-D-glucityl) = OC[C@@H](O)[C@@H](O)[C@H](O)[C@@H](O)CN*; X21 = O=C(CCP(=O)(O)CN1CCN(CP(=O)(O)CO)CCN(CP(=O)(O)CO)CC1)*; DOTA = O=C(O)CN1CCN(CC(=O)O)CCN(CC(=O)*)CCN(CC(=O)O)CC1; X9 = O=C(O)CN1CCN(CC(=O)O)CCN([C@H](CCC(=O)*)C(=O)O)CC1; Trp(5-Cl) = N[C@@H](Cc1c[nH]c2ccc(Cl)cc12)C(=O)O; Pyridine(2,6-diCH2) = c1cc(C[*:1])nc(C[*:2])c1; Pro(4R-NH2) = N[C@H]1CN[C@H](C(=O)O)C1; Glutaryl = O=C(CCCC(=O)[*:2])[*:1]; PEG6 = NCCOCCOCCOCCOCCOCCOCCC(=O)O; Hyp = O=C(O)[C@@H]1C[C@@H](O)CN1; X1 = O=C(CN1CCC(N[*:1])CC1)[*:2]; X30 = NCCNCC(CNCCN)C(=O)*; hSer = N[C@@H](CCO)C(=O)O; Api = NC1(C(=O)O)CCNCC1; Thp = NC1(C(=O)O)CCOCC1

target: T1, GIPR (CHO-K1-hGIPR cells) (Homo sapiens, UniProt P48546); experiment: FACS binding assay; settings: competition with 20 nM GIP-057, 4° C., 1 hour, read-out: pIC50 Category (converted)
T1 construct: host or cells: CHO-K1
T1 sequence (P48546 22-466): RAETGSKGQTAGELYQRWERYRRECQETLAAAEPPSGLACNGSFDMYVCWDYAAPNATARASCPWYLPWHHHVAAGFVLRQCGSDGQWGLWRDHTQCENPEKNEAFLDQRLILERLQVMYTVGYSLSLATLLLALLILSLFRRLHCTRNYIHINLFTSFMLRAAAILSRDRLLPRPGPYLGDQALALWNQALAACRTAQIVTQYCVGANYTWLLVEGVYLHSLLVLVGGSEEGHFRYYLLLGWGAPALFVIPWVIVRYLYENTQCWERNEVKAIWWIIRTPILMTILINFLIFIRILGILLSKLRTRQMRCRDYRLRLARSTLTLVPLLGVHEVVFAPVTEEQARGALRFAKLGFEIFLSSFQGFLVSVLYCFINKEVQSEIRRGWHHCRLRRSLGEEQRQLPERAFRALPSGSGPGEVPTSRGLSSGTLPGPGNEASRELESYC
Method: In order to determine binding of compounds according to the present invention to GIPR-expressing cells, a FACS binding assay was established.
CHO-K1-hGIPR cells (GenScript Biotech, #M00486) were cultured in Ham's F12 medium (Sigma-Aldrich, #N4888) including 10% fetal calf serum (FCS), 2 mM L-glutamine, 100 U/mL penicillin, 100 μg/mL streptomycin, 200 μg/mL Zeocin and 100 μg/mL HygromycinB. Cells were detached with Accutase (Biolegend, #BLD-423201) and washed in FACS buffer (PBS including 1% FCS). Cells were diluted in FACS buffer to a final concentration of 500.000 cells per mL. 200 μL of the cell suspension were transferred to a u-shaped non-binding 96-well plate (Greiner) and cells were washed in ice-cold FACS buffer.
Cells were washed twice in FACS buffer. An additional incubation step with 1 μg/mL APC-Streptavidin (Miltenyi; #130-106-791) in 50 μL FACS buffer for 30 min on ice was performed followed by two washes with FACS buffer.
Cells were analyzed in an Attune NxT flow cytometer. Median fluorescence intensities (MFI) of the APC/Cy5-channel were calculated by Attune NxT software. MFI values were plotted against peptide concentration and four parameter logistic (4PL) curve fitting and EC50/pEC50 or IC50/pIC50 calculations were performed using ActivityBase software.

Row | Structure (SMILES) | IC50
1 | CC[C@H](C)[C@@H]1NC(=O)[C@H](CC(C)C)NC(=O)C2(CCN(C(=O)C(CNCCN)CNCCN)CC2)NC(=O)[C@@H](NC(=O)[C@@H](CC(C)C)NC(=O)[C@H](CCC(=O)O)NC(=O)[C@@H]2C[C@@H](N)CN2C(=O)[C@H](Cc2c[nH]c3ccc(Cl)cc23)NC(=O)[C@H](Cc2c[nH]c3ccccc23)NC(=O)[C@H](CC(=O)O)NC(=O)CCCC(=O)NC[C@H](O)[C@@H](O)[C@H](O)[C@H](O)CO)CSCc2cccc(n2)CSC[C@@H](C(=O)NC2CCN(CC(=O)N[C@H](CCC(=O)NC[C@H](O)[C@@H](O)[C@H](O)[C@H](O)CO)C(N)=O)CC2)NC1=O [GIP-030, AGLU-Glutar-Asp-Trp-5Clw-Tap-Glu-leu-[Cys(2Lut)-Apc(N4Ac)-Leu-Ile-Cys]-APAc-glu(AGLU)-NH2] ({NH(1-deoxy-D-glucityl)-Glutaryl}-DW[Trp(5-Cl)][Pro(4R-NH2)]E[dL]C[Api](X30)LIC[X1][dE](NH(1-deoxy-D-glucityl))-NH2; linker 7-11 via Pyridine(2,6-diCH2)) | < 10 nM
2 | CC[C@H](C)[C@@H]1NC(=O)[C@H](CC(C)C)NC(=O)C2(CCN(C(=O)CNC(=O)CC[C@H](C(=O)O)N3CCN(CC(=O)O)CCN(CC(=O)O)CC3)CC2)NC(=O)[C@@H](NC(=O)[C@@H](CC(C)C)NC(=O)[C@H](CCC(=O)O)NC(=O)[C@@H]2C[C@@H](N)CN2C(=O)[C@H](Cc2c[nH]c3ccc(Cl)cc23)NC(=O)[C@H](Cc2c[nH]c3ccccc23)NC(=O)[C@H](CC(=O)O)NC(=O)CCCC(=O)NC[C@H](O)[C@@H](O)[C@H](O)[C@H](O)CO)CSCc2cccc(n2)CSC[C@@H](C(=O)NC2CCN(CC(=O)N[C@H](CCC(=O)NC[C@H](O)[C@@H](O)[C@H](O)[C@H](O)CO)C(N)=O)CC2)NC1=O [GIP-031, AGLU-Glutar-Asp-Trp-5Clw-Tap-Glu-leu-[Cys(2Lut)-Apc(NODAGA-Gly)-Leu-Ile-Cys]-APAc-glu(AGLU)-NH2] ({NH(1-deoxy-D-glucityl)-Glutaryl}-DW[Trp(5-Cl)][Pro(4R-NH2)]E[dL]C[Api]([Gly-X9])LIC[X1][dE](NH(1-deoxy-D-glucityl))-NH2; linker 7-11 via Pyridine(2,6-diCH2)) | < 10 nM
3 | CC[C@H](C)[C@@H]1NC(=O)[C@H](CC(C)C)NC(=O)C2(CCN(C(=O)CN3CCN(CC(=O)O)CCN(CC(=O)O)CCN(CC(=O)O)CC3)CC2)NC(=O)[C@@H](NC(=O)[C@@H](CC(C)C)NC(=O)[C@H](CCC(=O)O)NC(=O)[C@@H]2C[C@@H](N)CN2C(=O)[C@H](Cc2c[nH]c3ccc(Cl)cc23)NC(=O)[C@H](Cc2c[nH]c3ccccc23)NC(=O)[C@H](CC(=O)O)NC(=O)CN2CCC(NC(=O)CCCC(=O)NC[C@H](O)[C@@H](O)[C@H](O)[C@H](O)CO)CC2)CSCc2cccc(n2)CSC[C@@H](C(=O)N[C@H](CCC(=O)NC[C@H](O)[C@@H](O)[C@H](O)[C@H](O)CO)C(N)=O)NC1=O [GIP-033, AGLU-Glutar-APAc-Asp-Trp-5Clw-Hyp-Glu-leu-[Cys(2Lut)-Apc(DOTA)-Leu-Ile-Cys]-glu(AGLU)-NH2] ({NH(1-deoxy-D-glucityl)-Glutaryl}-[X1]DW[Trp(5-Cl)][Pro(4R-NH2)]E[dL]C[Api](DOTA)LIC[dE](NH(1-deoxy-D-glucityl))-NH2; linker 8-12 via Pyridine(2,6-diCH2)) | < 10 nM

Second part, the compound after the results:

Row | IC50 | Structure (SMILES)
4 | < 10 nM | CC[C@H](C)[C@@H]1NC(=O)[C@H](CC(C)C)NC(=O)C2(CCN(C(=O)CN3CCN(CC(=O)O)CCN(CC(=O)O)CCN(CC(=O)O)CC3)CC2)NC(=O)[C@@H](NC(=O)[C@@H](CC(C)C)NC(=O)[C@H](CCC(=O)O)NC(=O)[C@@H]2C[C@@H](N)CN2C(=O)[C@H](Cc2c[nH]c3ccc(Cl)cc23)NC(=O)[C@H](Cc2c[nH]c3ccccc23)NC(=O)[C@H](CCO)NC(=O)CCCC(=O)NC[C@H](O)[C@@H](O)[C@H](O)[C@H](O)CO)CSCc2cccc(n2)CSC[C@@H](C(=O)NC2CCN(CC(=O)N[C@H](CCC(=O)NC[C@H](O)[C@@H](O)[C@H](O)[C@H](O)CO)C(N)=O)CC2)NC1=O [GIP-034, AGLU-Glutar-Hse-Trp-5Clw-Tap-Glu-leu-[Cys(2Lut)-Apc(DOTA)-Leu-Ile-Cys]-APAc-glu(AGLU)-NH2] ({NH(1-deoxy-D-glucityl)-Glutaryl}-[hSer]W[Trp(5-Cl)][Pro(4R-NH2)]E[dL]C[Api](DOTA)LIC[X1][dE](NH(1-deoxy-D-glucityl))-NH2; linker 7-11 via Pyridine(2,6-diCH2))
5 | < 10 nM | CC[C@H](C)[C@@H]1NC(=O)[C@H](CC(C)C)NC(=O)C2(CCN(C(=O)CN3CCN(CC(=O)O)CCN(CC(=O)O)CCN(CC(=O)O)CC3)CC2)NC(=O)[C@@H](NC(=O)[C@H](CC(C)C)NC(=O)[C@H](CCC(=O)O)NC(=O)[C@@H]2C[C@@H](N)CN2C(=O)[C@H](Cc2c[nH]c3ccc(Cl)cc23)NC(=O)[C@H](Cc2c[nH]c3ccccc23)NC(=O)[C@H](CC(=O)O)NC(=O)CCCC(=O)NC[C@H](O)[C@@H](O)[C@H](O)[C@H](O)CO)CSCc2cccc(n2)CSC[C@@H](C(=O)NC2CCN(CC(=O)N[C@H](CCC(=O)NC[C@H](O)[C@@H](O)[C@H](O)[C@H](O)CO)C(N)=O)CC2)NC1=O [GIP-035, AGLU-Glutar-Asp-Trp-5Clw-Tap-Glu-Leu-[Cys(2Lut)-Apc(DOTA)-Leu-Ile-Cys]-APAc-glu(AGLU)-NH2] ({NH(1-deoxy-D-glucityl)-Glutaryl}-DW[Trp(5-Cl)][Pro(4R-NH2)]ELC[Api](DOTA)LIC[X1][dE](NH(1-deoxy-D-glucityl))-NH2; linker 7-11 via Pyridine(2,6-diCH2))
6 | < 10 nM | CC[C@H](C)[C@@H]1NC(=O)[C@H](CC(C)C)NC(=O)C2(CCOCC2)NC(=O)[C@@H](NC(=O)[C@@H](CC(C)C)NC(=O)[C@H](CCC(=O)O)NC(=O)[C@@H]2C[C@@H](O)CN2C(=O)[C@H](Cc2c[nH]c3ccc(Cl)cc23)NC(=O)[C@H](Cc2c[nH]c3ccccc23)NC(=O)[C@H](CC(=O)O)NC(=O)[C@@H](CCC(=O)NC[C@H](O)[C@@H](O)[C@H](O)[C@H](O)CO)NC(=O)CN2CCN(CC(=O)O)CCN(CC(=O)O)CCN(CC(=O)O)CC2)CSCc2cccc(n2)CSC[C@@H](C(=O)NC2CCN(CC(=O)N[C@H](CCC(=O)NC[C@H](O)[C@@H](O)[C@H](O)[C@H](O)CO)C(N)=O)CC2)NC1=O [GIP-036, DOTA-glu(AGLU)-Asp-Trp-5Clw-Hyp-Glu-leu-[Cys(2Lut)-Thp-Leu-Ile-Cys]-APAc-glu(AGLU)-NH2] ({DOTA}-[dE](NH(1-deoxy-D-glucityl))DW[Trp(5-Cl)][Hyp]E[dL]C[Thp]LIC[X1][dE](NH(1-deoxy-D-glucityl))-NH2; linker 8-12 via Pyridine(2,6-diCH2))
7 | < 10 nM | CC[C@H](C)[C@@H]1NC(=O)[C@H](CC(C)C)NC(=O)C2(CCOCC2)NC(=O)[C@@H](NC(=O)[C@@H](CC(C)C)NC(=O)[C@H](CCC(=O)O)NC(=O)[C@@H]2C[C@@H](N)CN2C(=O)[C@H](Cc2c[nH]c3ccc(Cl)cc23)NC(=O)[C@H](Cc2c[nH]c3ccccc23)NC(=O)[C@H](CC(=O)O)NC(=O)[C@@H](CCC(=O)NC[C@H](O)[C@@H](O)[C@H](O)[C@H](O)CO)NC(=O)CCOCCOCCOCCOCCOCCOCCNC(=O)CN2CCN(CC(=O)O)CCN(CC(=O)O)CCN(CC(=O)O)CC2)CSCc2cccc(n2)CSC[C@@H](C(=O)NC2CCN(CC(=O)N[C@H](CCC(=O)NC[C@H](O)[C@@H](O)[C@H](O)[C@H](O)CO)C(N)=O)CC2)NC1=O [GIP-037, DOTA-PEG6-glu(AGLU)-Asp-Trp-5Clw-Tap-Glu-leu-[Cys(2Lut)-Thp-Leu-Ile-Cys]-APAc-glu(AGLU)-NH2] ({DOTA-PEG6}-[dE](NH(1-deoxy-D-glucityl))DW[Trp(5-Cl)][Pro(4R-NH2)]E[dL]C[Thp]LIC[X1][dE](NH(1-deoxy-D-glucityl))-NH2; linker 8-12 via Pyridine(2,6-diCH2))

same assay, conditions: pIC50 Category, competition with 20 nM GIP-057, 4° C., 1 hour

Row | Structure (SMILES) | IC50
8 | CC[C@H](C)[C@@H]1NC(=O)[C@H](CC(C)C)NC(=O)C2(CCN(C(=O)CCP(=O)(O)CN3CCN(CP(=O)(O)CO)CCN(CP(=O)(O)CO)CC3)CC2)NC(=O)[C@@H](NC(=O)[C@@H](CC(C)C)NC(=O)[C@H](CCC(=O)O)NC(=O)[C@@H]2C[C@@H](N)CN2C(=O)[C@H](Cc2c[nH]c3ccc(Cl)cc23)NC(=O)[C@H](Cc2c[nH]c3ccccc23)NC(=O)[C@H](CC(=O)O)NC(=O)CCCC(=O)NC[C@H](O)[C@@H](O)[C@H](O)[C@H](O)CO)CSCc2cccc(n2)CSC[C@@H](C(=O)NC2CCN(CC(=O)N[C@H](CCC(=O)NC[C@H](O)[C@@H](O)[C@H](O)[C@H](O)CO)C(N)=O)CC2)NC1=O [GIP-029, AGLU-Glutar-Asp-Trp-5Clw-Tap-Glu-leu-[Cys(2Lut)-Apc(NOPO)-Leu-Ile-Cys]-APAc-glu(AGLU)-NH2] ({NH(1-deoxy-D-glucityl)-Glutaryl}-DW[Trp(5-Cl)][Pro(4R-NH2)]E[dL]C[Api](X21)LIC[X1][dE](NH(1-deoxy-D-glucityl))-NH2; linker 7-11 via Pyridine(2,6-diCH2)) | < 10 nM
